From PMC6616073 (Frontiers in Pharmacology, 2019)
Read-outs that look alike come from different tables or passages of the source. Positions of bridges follow the written chain, without caps; N, C: chain ends. Residues, ends and D or L forms follow the SMILES beside them.

How the values were obtained:
human α9α10 nAChR = molecular target: T1, human α9α10 nAChR (Homo sapiens, UniProt Q9GZZ6+Q9UGM1); test: Two-electrode voltage clamp, human α9α10 nAChR in Xenopus oocytes; type: cell-based; conditions: for inhibition of human α9α10 nAChR (result in words): concentrations as high as 50 µM, Xenopus oocytes, data not shown
T1 construct: expressed in transfected cells; host or cells: Xenopus laevis oocytes injected with cRNA (pT7TS vector)
Procedure: (§1) Oocytes were removed from mature, anesthetized Xenopus laevis by dissecting abdomen and removing necessary amount of ovarium. Stage V–VI Xenopus laevis oocytes were defolliculated with 2 mg/ml collagenase type I (Life Technologies, Camarillo, USA) at room temperature (21–24°C) for 2 h in Ca^2+-free Barth’s solution composed of (in mM) 88 NaCl, 1.1 KCl, 2.4 NaHCO3, 0.8 MgSO4, and 15 HEPES-NaOH at pH 7.6. Oocytes were injected with 9.2 ng of rat or human nAChR α9 and α10 cRNA (in a ratio 1:1) or human α3 and β2 or α4 and β2 cRNA (in a ratio 1:1). Oocytes were incubated at 18°C for 2–4 days before electrophysiological recordings in Barth’s solution composed of (in mM) 88 NaCl, 1.1 KCl, 2.4 NaHCO3, 0.3 Ca(NO3)2, 0.4 CaCl2, 0.8 MgSO4, and 15 HEPES-10NaOH at pH 7.6, supplemented with 40 μg/ml gentamicin and 100 μg/ml ampicillin. Recordings were performed using turbo TEC-03X amplifier (NPI Electronic, Tamm, Germany) and WinWCP recording software (University of Strathclyde, Glasgow, UK). The glass recording electrodes were filled with 3 M KCl and the electrode resistance was 0.1−0.5 MΩ. Membrane potential was clamped at −60 mV. Oocytes were briefly washed with Ba^2+ Ringer’s solution ([Fuchs and Murrow, 1992]) composed of (in mM) 115 NaCl, 2.5 KCl, 1.8 BaCl2, 10 HEPES at pH 7.2, followed by three applications of 10 μM acetylcholine (ACh). Washout with Ba^2+ Ringer’s was done for 5 min between ACh applications. Oocytes were preincubated with various concentrations of Ly6 peptides for 5 min followed by their co-application with ACh. To induce ion current, we used ACh in the concentration range from 10 to 30 μM. The peak current amplitudes of ACh-induced responses were measured before (ACh alone) and after the preincubation of oocytes with peptides. The ratio between these two measurements was used to assess the activity of the tested compounds. In the experiments with α3β2 and α4β2, the above technique was also used, except that oocytes were washed in Barth`s solution. All control experiments were performed on the same day.
Rat α9 and α10 cDNAs was cloned in a pGEMHE vector; human α9, α10, α3, and β2 cDNAs were derived from pT7TS vector. Human α4 was cloned in pSP64 vector. Plasmid pT7TS constructs of human nAChR α9 and α10 subunits and human α3 and β2 subunits were linearized with XbaI restriction enzymes (NEB, Ipswich, USA). pSP64 vector was linearized with BamH1 restriction enzymes (NEB, Ipswich, USA). Rat α9 and α10 plasmids were linearized using NheI (NEB, Ipswich, USA). All plasmid constructs were sequencing before mRNA synthesis. […]

human α3β2 nAChR = test: Two-electrode voltage clamp, human α3β2 nAChR in Xenopus oocytes; type: cell-based; conditions: X. laevis oocytes; for activity on ion currents in α3β2 nAChR (result in words): 30 μM acetylcholine, 30 µM peptide in text, 50 μM in Figure 4, n = 3 or 5
Procedure: as §1, with “day. […]” for “day.”

[1] = molecular target: membrane-bound Torpedo californica nAChR (Tetronarce californica, UniProt P02710+P02712+P02714+P02718); test: biochemical; type: binding
[2] = molecular target: T2, AChBP from Aplysia californica (Aplysia californica, UniProt Q8WSF8); test: biochemical; type: binding
T2 construct: made in house

human α7 nAChR = human α7 nAChR (Homo sapiens, UniProt P36544); test: cell-based; type: binding
rat α9α10 nAChR = molecular target: T3, rat α9α10 nAChR (Rattus norvegicus, UniProt P43144+Q9JLB5); test: Two-electrode voltage clamp, rat α9α10 nAChR in Xenopus oocytes; type: cell-based; conditions: X. laevis oocytes, 30 μM acetylcholine, 5 min pre-incubation with peptide, −60 mV; n = 3; read-out: IC50, inhibition of acetylcholine-induced ion currents in rat α9α10 nAChR
T3 construct: expressed in transfected cells; host or cells: Xenopus laevis oocytes injected with cRNA (pGEMHE vector)
Procedure: Oocytes were removed from mature, anesthetized Xenopus laevis by dissecting abdomen and removing necessary amount of ovarium. Stage V–VI Xenopus laevis oocytes were defolliculated with 2 mg/ml collagenase type I (Life Technologies, Camarillo, USA) at room temperature (21–24°C) for 2 h in Ca^2+-free Barth’s solution composed of (in mM) 88 NaCl, 1.1 KCl, 2.4 NaHCO3, 0.8 MgSO4, and 15 HEPES-NaOH at pH 7.6. Oocytes were injected with 9.2 ng of rat or human nAChR α9 and α10 cRNA (in a ratio 1:1) or human α3 and β2 or α4 and β2 cRNA (in a ratio 1:1). Oocytes were incubated at 18°C for 2–4 days before electrophysiological recordings in Barth’s solution composed of (in mM) 88 NaCl, 1.1 KCl, 2.4 NaHCO3, 0.3 Ca(NO3)2, 0.4 CaCl2, 0.8 MgSO4, and 15 HEPES-10NaOH at pH 7.6, supplemented with 40 μg/ml gentamicin and 100 μg/ml ampicillin. Recordings were performed using turbo TEC-03X amplifier (NPI Electronic, Tamm, Germany) and WinWCP recording software (University of Strathclyde, Glasgow, UK). The glass recording electrodes were filled with 3 M KCl and the electrode resistance was 0.1−0.5 MΩ. Membrane potential was clamped at −60 mV. […] The peak current amplitudes of ACh-induced responses were measured before (ACh alone) and after the preincubation of oocytes with peptides. […]

[3] = […], 90 min with peptide + 5 min with radioligand, 20 mM Tris-HCl pH 8.0, 1 mg/ml BSA, mean (95% CI), three to four independent experiments, read-out: IC50, μM (95%CI) T. californica
[4] = […], 90 min with peptide + 5 min with radioligand, three to four independent experiments, read-out: IC50, μM (95%CI) AChBP

T1 sequence (Q9UGM1 26-479 limits assumed): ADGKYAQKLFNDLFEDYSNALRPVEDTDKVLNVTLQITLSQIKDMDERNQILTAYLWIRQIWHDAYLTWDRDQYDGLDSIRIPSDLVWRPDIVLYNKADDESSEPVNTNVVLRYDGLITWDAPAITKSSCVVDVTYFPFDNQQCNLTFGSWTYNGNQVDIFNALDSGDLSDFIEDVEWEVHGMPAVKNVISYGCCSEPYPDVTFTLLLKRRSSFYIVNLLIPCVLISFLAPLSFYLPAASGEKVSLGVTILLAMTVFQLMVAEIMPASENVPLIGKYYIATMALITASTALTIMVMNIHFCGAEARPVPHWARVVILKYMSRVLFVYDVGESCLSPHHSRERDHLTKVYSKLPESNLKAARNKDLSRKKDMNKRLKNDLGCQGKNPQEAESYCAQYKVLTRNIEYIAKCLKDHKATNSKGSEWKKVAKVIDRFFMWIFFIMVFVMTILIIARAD
T1 sequence (Q9GZZ6 25-450): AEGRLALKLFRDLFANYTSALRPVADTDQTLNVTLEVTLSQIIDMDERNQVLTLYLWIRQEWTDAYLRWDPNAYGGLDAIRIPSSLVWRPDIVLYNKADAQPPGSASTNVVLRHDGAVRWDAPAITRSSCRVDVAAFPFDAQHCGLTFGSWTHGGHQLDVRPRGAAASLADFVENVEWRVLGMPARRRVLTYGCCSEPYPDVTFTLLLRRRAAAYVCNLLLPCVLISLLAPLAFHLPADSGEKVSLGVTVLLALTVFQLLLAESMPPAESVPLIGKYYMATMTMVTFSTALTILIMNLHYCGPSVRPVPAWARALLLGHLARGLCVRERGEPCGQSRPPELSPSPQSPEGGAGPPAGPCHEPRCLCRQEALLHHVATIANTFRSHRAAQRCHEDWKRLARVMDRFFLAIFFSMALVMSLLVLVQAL
membrane-bound Torpedo californica nAChR, sequence (P02714 18-506): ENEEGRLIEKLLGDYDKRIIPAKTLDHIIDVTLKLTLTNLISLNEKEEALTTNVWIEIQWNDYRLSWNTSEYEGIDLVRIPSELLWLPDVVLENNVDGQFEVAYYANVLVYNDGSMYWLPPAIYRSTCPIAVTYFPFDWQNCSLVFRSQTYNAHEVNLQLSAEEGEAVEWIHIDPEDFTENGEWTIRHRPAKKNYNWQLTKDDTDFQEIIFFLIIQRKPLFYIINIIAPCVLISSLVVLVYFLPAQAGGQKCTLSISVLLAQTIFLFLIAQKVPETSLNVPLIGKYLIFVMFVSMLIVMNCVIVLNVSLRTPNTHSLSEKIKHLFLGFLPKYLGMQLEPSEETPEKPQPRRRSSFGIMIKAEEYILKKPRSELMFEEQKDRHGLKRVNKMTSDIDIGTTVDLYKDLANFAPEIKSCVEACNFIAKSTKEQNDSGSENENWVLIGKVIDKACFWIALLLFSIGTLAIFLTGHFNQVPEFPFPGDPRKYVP
membrane-bound Torpedo californica nAChR, sequence (P02710 25-461): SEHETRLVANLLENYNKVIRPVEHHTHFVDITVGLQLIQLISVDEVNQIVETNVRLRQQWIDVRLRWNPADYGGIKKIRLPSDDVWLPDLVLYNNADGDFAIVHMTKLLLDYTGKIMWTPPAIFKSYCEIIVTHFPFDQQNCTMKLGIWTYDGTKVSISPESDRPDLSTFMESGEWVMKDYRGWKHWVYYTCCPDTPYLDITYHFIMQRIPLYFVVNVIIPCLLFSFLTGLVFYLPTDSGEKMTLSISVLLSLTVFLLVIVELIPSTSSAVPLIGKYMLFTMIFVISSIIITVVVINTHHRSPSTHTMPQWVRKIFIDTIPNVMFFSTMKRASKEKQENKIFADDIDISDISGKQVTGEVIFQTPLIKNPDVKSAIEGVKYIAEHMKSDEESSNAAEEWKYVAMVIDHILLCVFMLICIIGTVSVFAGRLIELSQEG
membrane-bound Torpedo californica nAChR, sequence (P02718 22-522): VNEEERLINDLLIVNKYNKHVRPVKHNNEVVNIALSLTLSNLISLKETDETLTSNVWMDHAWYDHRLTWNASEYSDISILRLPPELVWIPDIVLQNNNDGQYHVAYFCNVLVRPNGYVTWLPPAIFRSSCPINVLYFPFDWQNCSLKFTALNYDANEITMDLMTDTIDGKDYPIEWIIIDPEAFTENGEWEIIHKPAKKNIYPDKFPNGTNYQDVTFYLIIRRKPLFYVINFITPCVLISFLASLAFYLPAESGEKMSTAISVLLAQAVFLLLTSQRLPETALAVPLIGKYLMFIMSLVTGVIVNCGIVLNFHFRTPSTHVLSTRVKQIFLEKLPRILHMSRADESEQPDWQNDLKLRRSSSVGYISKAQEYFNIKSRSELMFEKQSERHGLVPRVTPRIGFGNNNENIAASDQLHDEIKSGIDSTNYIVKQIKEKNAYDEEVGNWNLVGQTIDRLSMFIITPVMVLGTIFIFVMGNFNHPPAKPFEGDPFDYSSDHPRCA
membrane-bound Torpedo californica nAChR, sequence (P02712 25-493): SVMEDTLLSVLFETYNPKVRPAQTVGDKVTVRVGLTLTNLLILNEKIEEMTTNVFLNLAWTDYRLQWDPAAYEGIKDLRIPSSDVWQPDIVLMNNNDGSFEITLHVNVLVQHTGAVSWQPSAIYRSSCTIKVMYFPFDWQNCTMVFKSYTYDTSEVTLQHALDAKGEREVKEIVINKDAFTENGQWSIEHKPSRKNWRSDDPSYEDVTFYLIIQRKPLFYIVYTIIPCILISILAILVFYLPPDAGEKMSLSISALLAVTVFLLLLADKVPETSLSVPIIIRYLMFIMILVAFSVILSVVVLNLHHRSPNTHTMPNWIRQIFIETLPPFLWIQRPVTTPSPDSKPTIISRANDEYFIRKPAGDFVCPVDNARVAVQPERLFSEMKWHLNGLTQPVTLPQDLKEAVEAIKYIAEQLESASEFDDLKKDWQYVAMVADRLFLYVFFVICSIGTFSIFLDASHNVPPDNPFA
T2 sequence (Q8WSF8 entry or part of it): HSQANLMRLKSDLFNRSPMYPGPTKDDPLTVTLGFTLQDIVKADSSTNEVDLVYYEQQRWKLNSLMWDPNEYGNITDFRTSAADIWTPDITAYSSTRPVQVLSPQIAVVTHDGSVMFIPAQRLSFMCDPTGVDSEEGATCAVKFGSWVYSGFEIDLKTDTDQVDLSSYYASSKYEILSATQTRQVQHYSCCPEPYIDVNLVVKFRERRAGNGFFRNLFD
human α7 nAChR, sequence (P36544 23-502): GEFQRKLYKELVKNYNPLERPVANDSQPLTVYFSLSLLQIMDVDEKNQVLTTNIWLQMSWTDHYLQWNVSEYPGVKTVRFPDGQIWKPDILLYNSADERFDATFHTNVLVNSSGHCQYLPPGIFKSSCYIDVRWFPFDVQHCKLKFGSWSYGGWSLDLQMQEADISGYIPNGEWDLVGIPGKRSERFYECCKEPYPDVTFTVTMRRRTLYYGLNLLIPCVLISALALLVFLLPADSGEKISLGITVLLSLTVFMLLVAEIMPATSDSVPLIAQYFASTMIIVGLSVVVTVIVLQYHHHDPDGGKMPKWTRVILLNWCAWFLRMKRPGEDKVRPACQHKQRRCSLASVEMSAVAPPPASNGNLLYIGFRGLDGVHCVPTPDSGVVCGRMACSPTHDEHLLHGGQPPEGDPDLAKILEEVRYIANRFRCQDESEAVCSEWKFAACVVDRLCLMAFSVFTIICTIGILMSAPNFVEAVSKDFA
T3 sequence (Q9JLB5 25-447): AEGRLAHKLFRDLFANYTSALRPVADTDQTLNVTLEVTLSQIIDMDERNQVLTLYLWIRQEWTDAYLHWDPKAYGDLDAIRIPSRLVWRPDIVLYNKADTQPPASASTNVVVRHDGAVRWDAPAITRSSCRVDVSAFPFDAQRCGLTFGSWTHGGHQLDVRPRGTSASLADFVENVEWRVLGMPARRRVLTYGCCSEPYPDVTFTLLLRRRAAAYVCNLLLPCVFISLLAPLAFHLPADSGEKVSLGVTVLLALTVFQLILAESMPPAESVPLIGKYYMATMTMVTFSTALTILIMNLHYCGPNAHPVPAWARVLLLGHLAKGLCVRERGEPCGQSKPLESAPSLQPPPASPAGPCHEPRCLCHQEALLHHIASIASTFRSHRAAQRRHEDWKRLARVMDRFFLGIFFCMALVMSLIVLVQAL
T3 sequence (P43144 26-479): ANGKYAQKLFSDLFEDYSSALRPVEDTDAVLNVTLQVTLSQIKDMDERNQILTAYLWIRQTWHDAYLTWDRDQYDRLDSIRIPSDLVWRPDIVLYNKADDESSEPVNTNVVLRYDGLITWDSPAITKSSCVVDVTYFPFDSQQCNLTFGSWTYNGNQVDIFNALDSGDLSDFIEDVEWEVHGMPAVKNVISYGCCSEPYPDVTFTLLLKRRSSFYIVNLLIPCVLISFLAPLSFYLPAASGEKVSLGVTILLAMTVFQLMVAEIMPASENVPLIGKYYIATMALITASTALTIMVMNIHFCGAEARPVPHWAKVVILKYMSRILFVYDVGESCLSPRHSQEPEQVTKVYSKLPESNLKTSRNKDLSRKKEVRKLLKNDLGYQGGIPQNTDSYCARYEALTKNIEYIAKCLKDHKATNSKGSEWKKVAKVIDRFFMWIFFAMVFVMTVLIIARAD

CC(C)C[C@@H]1NC(=O)[C@H]([C@@H](C)O)NC(=O)[C@@H](N)CSSC[C@@H](C(=O)O)NC(=O)[C@H]([C@@H](C)O)NC(=O)[C@H](C(C)C)NC(=O)[C@H](C(C)C)NC(=O)[C@@H]2CCCN2C(=O)[C@H](CO)NC(=O)[C@H](CCC(N)=O)NC(=O)[C@H](CC(N)=O)NC(=O)[C@H](Cc2ccccc2)NC(=O)[C@@H]2CCCN2C(=O)[C@H](Cc2ccc(O)cc2)NC(=O)[C@H](CCC(=O)O)NC(=O)[C@H](C)NC(=O)[C@H](CCC(=O)O)NC(=O)[C@H](C(C)C)NC(=O)[C@H]([C@@H](C)O)NC(=O)[C@H](C(C)C)NC1=O [SLURP1 (6)] (H-CTLVTVEAEYPFNQSPVVTC-OH; disulfide 1-20; N-terminus assumed)
inhibition of human α9α10 nAChR (result in words) (human α9α10 nAChR): no inhibition
normalized ion current in human α3β2 nAChR (current with ACh alone = 1) (human α3β2 nAChR; 50 μM peptide, 30 μM ACh, mean ± SEM, n = 5): 0.74 ± 0.08

CSCC[C@H](NC(=O)[C@H](CCCNC(=N)N)NC(=O)[C@@H](NC(=O)[C@@H]1CCCN1C(=O)[C@@H](NC(=O)[C@H](Cc1ccc(O)cc1)NC(=O)[C@H](Cc1ccc(O)cc1)NC(=O)[C@@H](NC(=O)[C@H](CCCNC(=N)N)NC(=O)[C@@H](NC(=O)[C@@H](N)CS)[C@@H](C)O)[C@@H](C)O)[C@@H](C)O)[C@@H](C)O)C(=O)N[C@@H](CS)C(=O)O [Lynx1 short linear (4)] (H-CTRTYYTPTRMC-OH)
IC50 [1, 3]: 15.6 µM
IC50 [2, 4]: > 100 µM

CSCC[C@@H]1NC(=O)[C@H](CCCNC(=N)N)NC(=O)[C@H](CCCNC(=N)N)NC(=O)[C@H](C(C)C)NC(=O)[C@H](C(C)C)NC(=O)[C@H](CCC(=O)O)NC(=O)[C@H](Cc2ccc(O)cc2)NC(=O)[C@@H]2CCCN2C(=O)[C@H](CO)NC(=O)[C@H](CCCNC(=N)N)NC(=O)[C@H](CCC(N)=O)NC(=O)[C@H](Cc2c[nH]cn2)NC(=O)[C@H](CCCNC(=N)N)NC(=O)[C@H](C(C)C)NC(=O)[C@H](CCSC)NC(=O)[C@H](CCCCN)NC(=O)[C@@H](N)CSSC[C@@H](C(=O)O)NC1=O [SSS (5)] (H-CKMVRHQRSPYEVVRRMC-OH; disulfide 1-18; N-terminus assumed)
fold more active against α7 nAChR than the Lynx1 fragment (1) (human α7 nAChR; ratio of IC50 values of the radioligand assay): 10 fold
inhibition of ion currents in human α9α10 nAChR (human α9α10 nAChR; 100 μM peptide, 25 μM acetylcholine, X. laevis oocytes, n = 3): 50%
activity on ion currents in α3β2 nAChR (result in words) (human α3β2 nAChR): inactive

CSCC[C@H](NC(=O)[C@H](CCCNC(=N)N)NC(=O)[C@@H](NC(=O)[C@@H]1CCCN1C(=O)[C@@H](NC(=O)[C@H](Cc1ccc(O)cc1)NC(=O)[C@H](Cc1ccc(O)cc1)NC(=O)[C@@H](NC(=O)[C@H](CCCNC(=N)N)NC(=O)[C@@H](NC(=O)[C@@H](N)[C@@H](C)O)[C@@H](C)O)[C@@H](C)O)[C@@H](C)O)[C@@H](C)O)C(=O)N[C@@H](CCCCN)C(=O)N[C@H](C(=O)N[C@@H](CO)C(=O)N[C@@H](CCCCN)C(=O)O)C(C)C [Lynx1 linear (2)] (H-TTRTYYTPTRMKVSK-OH)
IC50 [1, 3]: 13.2 µM
IC50 (human α7 nAChR; […], 90 min with peptide + 5 min with radioligand, Tris-HCl pH 8.0, mean (95% CI), three to four independent experiments): > 180 µM
IC50 [2, 4]: > 100 µM
IC50 (human α9α10 nAChR): 32.3 µM

CSCC[C@@H]1NC(=O)[C@H](CCCNC(=N)N)NC(=O)[C@H]([C@@H](C)O)NC(=O)[C@@H]2CCCN2C(=O)[C@H]([C@@H](C)O)NC(=O)[C@H](Cc2ccc(O)cc2)NC(=O)[C@H](Cc2ccc(O)cc2)NC(=O)[C@H]([C@@H](C)O)NC(=O)[C@H](CCCNC(=N)N)NC(=O)[C@H]([C@@H](C)O)NC(=O)[C@H]([C@@H](C)O)NC(=O)[C@@H](N)CSSC[C@@H](C(=O)O)NC(=O)[C@H](CCCCN)NC(=O)[C@H](CO)NC(=O)[C@H](C(C)C)NC(=O)[C@H](CCCCN)NC1=O [Lynx1 (1)] (H-CTTRTYYTPTRMKVSKC-OH; disulfide 1-17)
IC50 ([1]; IC50, μM (95%CI) T. californica): 4.9 µM
IC50 [2]: > 100 µM
IC50 (rat α9α10 nAChR): 27 µM

CC(C)C[C@@H]1NC(=O)[C@H](C(C)C)NC(=O)[C@H](CCCNC(=N)N)NC(=O)[C@H]([C@@H](C)O)NC(=O)[C@H](C)NC(=O)[C@H]([C@@H](C)O)NC(=O)[C@@H](N)CSSC[C@@H](C(=O)O)NC(=O)[C@H]([C@@H](C)O)NC(=O)[C@H](C(C)C)NC(=O)[C@H](CC(C)C)NC(=O)[C@@H]2CCCN2C(=O)[C@H](CC(C)C)NC(=O)[C@H](CC(=O)O)NC(=O)[C@H](CCC(=O)O)NC(=O)[C@H]([C@@H](C)O)NC(=O)[C@H](CC(N)=O)NC(=O)[C@H](CO)NC1=O [SLURP2 (7)] (H-CTATRVLSNTEDLPLVTC-OH; disulfide 1-18; N-terminus assumed)
inhibition of human α9α10 nAChR (result in words) (human α9α10 nAChR): no inhibition
activity on ion currents in α3β2 nAChR (result in words) (human α3β2 nAChR): inactive

CSCC[C@@H]1NC(=O)[C@H](CCCNC(=N)N)NC(=O)[C@H]([C@@H](C)O)NC(=O)[C@@H]2CCCN2C(=O)[C@H]([C@@H](C)O)NC(=O)[C@H](Cc2ccc(O)cc2)NC(=O)[C@H](Cc2ccc(O)cc2)NC(=O)[C@H]([C@@H](C)O)NC(=O)[C@H](CCCNC(=N)N)NC(=O)[C@H]([C@@H](C)O)NC(=O)[C@@H](N)CSSC[C@@H](C(=O)O)NC1=O [Lynx1 short (3)] (H-CTRTYYTPTRMC-OH; disulfide 1-12)
IC50 [1, 3]: 74.1 µM
IC50 [2, 4]: > 100 µM
